Assay results reported in patent US20010031729A1, “Composition comprising carbohydrate and peptide material and its use as an energy supplement after or during physical exercise or as a metabolic nutrient for oral consumption” (priority 1999, published 2001).

Tested on: healthy, non-obese male subjects after an overnight fast
Assay: First study: insulinotropic effect of test drinks co-ingested with carbohydrate, plasma insulin by radio-immuno-assay
Assay type: in vivo, human
Conditions: 1st study
Excerpt: In studies presented below the effects of intact casein, several protein hydrolysates and protein hydrolysate in combination wit specific amino acids have been examined. The sodium casein used in this study is commercially available from DMV-International. Glucose and maltodextrin were obtained from AVEBE (the Netherlands) and crystalline amino acids from BUFA (the Netherlands). In the presented study the following commercially available protein hydrolysates from Quest-International have been used: Hyprol® 3301 (whey protein hydrolysate, average peptide chain length of 4.1), Hyprol® 4107 (wheat gluten protein hydrolysate, average peptide chain length of 12.2) and Hyprol® 7102 (pea protein hydrolysate, average peptide chain length of 6.4). The insulin responses in blood plasma was analysed by radio-immuno-assay (Insulin RIA 100 kit, Pharmacia, Sweden),
In three studies the efficiency of an amino acid and/or protein (hydrolysate) mixture in a carbohydrate containing drink with respect to their insulinotropic effect in human subjects was examined. […]
Eight healthy, non-obese male subjects (age 21±0.4, weight 73.9±2.2 kg, height 186±2 cm, BMI 21.4±0.7 kg·m^−2) after an overnight fast, were tested for 2 hours on 10 occasions in which different beverage compositions were ingested. […] The insulin response is expressed as area under the curve during the second hour. […]

NC(=O)CC[C@H](N)C(=O)O [glutamine]
Influence of addition of free glutamine on plasma glutamine concentrations: hardly influenced
Effect on the insulin response of addition to the mixture of arginine, leucine and phenylalanine (healthy men): no effect
